The values that follow are results of earlier work, collected in patent publication US8470366B2, “Nicotine containing soft gelatin pastilles” (priority 2010, dated 2013).

The conditions of data set [1]: background statement.
The conditions of data set [2]: background statement. The source holds these as a separate data set.

Molecules are shown by their SMILES.

As for `CN1CCCC1c1cccnc1` (single isomer, unassigned; (+)) [(+) nicotine], the “Physiological activity relative to (−) nicotine” value in data set [1] is recorded as “one-half”.

For `CN1CCCC1c1cccnc1` (centres unmarked) [nicotine, Nicotine], the “Half life of nicotine in the body” value in data set [2] is reported as “around two”.
